Experiments:
Assay type in all cases: in vivo
[1] = system: wheat (Triticum aestivum); experiment: Test A postemergence; conditions: Triticum aestivum, post-emergence, 240 h; for plant injury at 125 g/ha: 125 g ai/ha, postemergence, visual injury vs untreated controls after approx. 10 d, 0 = no effect, 100 = complete control, read-out: Wheat plant response rating (0 to 100 scale); for plant injury at 31 g/ha: Postemergence, 31 g ai/ha, visual injury after approx. 10 d, 0 to 100 scale, 0 no effect, 100 complete control, read-out: Plant response rating, Wheat
Summary of the method: (§1)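 Visual injury scores from 0, no effect, to 100, complete control, were assigned versus untreated controls roughly 10 d after treatment in the greenhouse. Test chemicals, formulated with surfactant in a non-phytotoxic solvent, were applied to planted seeds as a preemergence soil spray or postemergence to one- to two-leaf plants 2 to 10 cm tall, in loam–sand soil.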

[2] = system: Galium (catchweed bedstraw, Galium aparine); experiment: Test A postemergence; conditions: Galium, post-emergence, 240 h; for pest or weed control at 125 g/ha: 125 g ai/ha, postemergence, visual injury vs untreated controls after approx. 10 d, 0 = no effect, 100 = complete control, read-out: Galium plant response rating (0 to 100 scale); for pest or weed control at 31 g/ha: Postemergence, 31 g ai/ha, visual injury after approx. 10 d, 0 to 100 scale, 0 no effect, 100 complete control, read-out: Plant response rating, Galium
Summary of the method: as §1

[3] = system: giant foxtail (Setaria faberii); experiment: Test A postemergence; conditions: Setaria faberi, post-emergence, 240 h; for pest or weed control at 125 g/ha: 125 g ai/ha, postemergence, visual injury vs untreated controls after approx. 10 d, 0 = no effect, 100 = complete control, read-out: Foxtail, Giant plant response rating (0 to 100 scale); for pest or weed control at 31 g/ha: Postemergence, 31 g ai/ha, visual injury after approx. 10 d, 0 to 100 scale, 0 no effect, 100 complete control, read-out: Plant response rating, Foxtail, Giant
Summary of the method: as §1

Kochia (Kochia scoparia) [4] = experiment: Test A postemergence; conditions: Bassia scoparia, post-emergence, 240 h; for pest or weed control at 125 g/ha: 125 g ai/ha, postemergence, visual injury vs untreated controls after approx. 10 d, 0 = no effect, 100 = complete control, read-out: Kochia plant response rating (0 to 100 scale); for pest or weed control at 31 g/ha: Postemergence, 31 g ai/ha, visual injury after approx. 10 d, 0 to 100 scale, 0 no effect, 100 complete control, read-out: Plant response rating, Kochia
Summary of the method: as §1

[5] = system: ryegrass, Italian (Italian ryegrass, Lolium multiflorum); experiment: Test A postemergence; conditions: Lolium multiflorum, post-emergence, 240 h; for pest or weed control at 125 g/ha: 125 g ai/ha, postemergence, visual injury vs untreated controls after approx. 10 d, 0 = no effect, 100 = complete control, read-out: Ryegrass, Italian plant response rating (0 to 100 scale); for pest or weed control at 31 g/ha: Postemergence, 31 g ai/ha, visual injury after approx. 10 d, 0 to 100 scale, 0 no effect, 100 complete control, read-out: Plant response rating, Ryegrass, Italian
Summary of the method: as §1

[6] = system: blackgrass (Alopecurus myosuroides); experiment: Test A postemergence; conditions: Alopecurus myosuroides, post-emergence, 240 h; for pest or weed control at 125 g/ha: 125 g ai/ha, postemergence, visual injury vs untreated controls after approx. 10 d, 0 = no effect, 100 = complete control, read-out: Blackgrass plant response rating (0 to 100 scale); for pest or weed control at 31 g/ha: Postemergence, 31 g ai/ha, visual injury after approx. 10 d, 0 to 100 scale, 0 no effect, 100 complete control, read-out: Plant response rating, Blackgrass
Summary of the method: as §1

corn (Zea mays) = experiment: Test A postemergence; conditions: Zea mays, post-emergence, 240 h; for plant injury at 125 g/ha: 125 g ai/ha, postemergence, visual injury vs untreated controls after approx. 10 d, 0 = no effect, 100 = complete control, read-out: Corn plant response rating (0 to 100 scale); for Corn plant response rating (crop injury, 0 = no effect, 100 = complete kill) at 31 g/ha: Postemergence, 31 g ai/ha, visual injury after approx. 10 d, 0 to 100 scale, 100 complete control
Summary of the method: as §1

[7] = system: ragweed (common ragweed, Ambrosia elatior); experiment: Test A postemergence; conditions: Ambrosia artemisiifolia, post-emergence, 240 h; for pest or weed control at 125 g/ha: 125 g ai/ha, postemergence, visual injury vs untreated controls after approx. 10 d, 0 = no effect, 100 = complete control, read-out: Ragweed plant response rating (0 to 100 scale); for pest or weed control at 31 g/ha: Postemergence, 31 g ai/ha, visual injury after approx. 10 d, 0 to 100 scale, 0 no effect, 100 complete control, read-out: Plant response rating, Ragweed
Summary of the method: as §1

[8] = system: pigweed (Amaranthus retroflexus); experiment: Test A postemergence; conditions: Amaranthus retroflexus, post-emergence, 240 h; for pest or weed control at 125 g/ha: 125 g ai/ha, postemergence, visual injury vs untreated controls after approx. 10 d, 0 = no effect, 100 = complete control, read-out: Pigweed plant response rating (0 to 100 scale); for pest or weed control at 31 g/ha: Postemergence, 31 g ai/ha, visual injury after approx. 10 d, 0 to 100 scale, 0 no effect, 100 complete control, read-out: Plant response rating, Pigweed
Summary of the method: as §1

[9] = system: barnyardgrass (Echinochloa crus-galli); experiment: Test A postemergence; conditions: Echinochloa crus-galli, post-emergence, 240 h; for pest or weed control at 125 g/ha: 125 g ai/ha, postemergence, visual injury vs untreated controls after approx. 10 d, 0 = no effect, 100 = complete control, read-out: Barnyardgrass plant response rating (0 to 100 scale); for pest or weed control at 31 g/ha: Postemergence, 31 g ai/ha, visual injury after approx. 10 d, 0 to 100 scale, 0 no effect, 100 complete control, read-out: Plant response rating, Barnyardgrass
Summary of the method: as §1

[10] = system: giant foxtail (Setaria faberii); experiment: Test A preemergence; conditions: Setaria faberi, pre-emergence, 240 h, 0 to 100 scale where 0 is no effect and 100 is complete control, read-out: Foxtail, Giant plant response rating; for pest or weed control at 31 g/ha: 31 g ai/ha, Preemergence; for pest or weed control at 125 g/ha: 125 g ai/ha, preemergence, approx. 10 d
Summary of the method: as §1

Kochia (Kochia scoparia) [11] = experiment: Test A preemergence; conditions: Bassia scoparia, pre-emergence, 240 h, 0 to 100 scale where 0 is no effect and 100 is complete control, read-out: Kochia plant response rating; for pest or weed control at 31 g/ha: 31 g ai/ha, Preemergence; for pest or weed control at 125 g/ha: 125 g ai/ha, preemergence, approx. 10 d
Summary of the method: as §1

[12] = system: ryegrass, Italian (Italian ryegrass, Lolium multiflorum); experiment: Test A preemergence; conditions: Lolium multiflorum, pre-emergence, 240 h, 0 to 100 scale where 0 is no effect and 100 is complete control, read-out: Ryegrass, Italian plant response rating; for pest or weed control at 31 g/ha: 31 g ai/ha, Preemergence; for pest or weed control at 125 g/ha: 125 g ai/ha, preemergence, approx. 10 d
Summary of the method: as §1

[13] = system: ragweed (common ragweed, Ambrosia elatior); experiment: Test A preemergence; conditions: Ambrosia artemisiifolia, pre-emergence, 240 h, 0 to 100 scale where 0 is no effect and 100 is complete control, read-out: Ragweed plant response rating; for pest or weed control at 31 g/ha: 31 g ai/ha, Preemergence; for pest or weed control at 125 g/ha: 125 g ai/ha, preemergence, approx. 10 d
Summary of the method: as §1

[14] = system: pigweed (Amaranthus retroflexus); experiment: Test A preemergence; conditions: Amaranthus retroflexus, pre-emergence, 240 h, 0 to 100 scale where 0 is no effect and 100 is complete control, read-out: Pigweed plant response rating; for pest or weed control at 31 g/ha: 31 g ai/ha, Preemergence; for pest or weed control at 125 g/ha: 125 g ai/ha, preemergence, approx. 10 d
[15] = system: barnyardgrass (Echinochloa crus-galli); experiment: Test A preemergence; conditions: Echinochloa crus-galli, pre-emergence, 240 h, 0 to 100 scale where 0 is no effect and 100 is complete control, read-out: Barnyardgrass plant response rating; for pest or weed control at 31 g/ha: 31 g ai/ha, Preemergence; for pest or weed control at 125 g/ha: 125 g ai/ha, preemergence, approx. 10 d
Summary of the method: as §1

rice (Oryra sativa) = experiment: Test B flooded paddy test; conditions: Oryza sativa, 250 g ai/ha, Flood; 0 to 100 scale where 0 is no effect and 100 is complete control; read-out: Rice plant response rating
Summary of the method: (§2)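 Percent control, visually estimated after 13–15 d in the greenhouse on a 0–100 basis, compares treated pots with untreated ones; compound was put into paddy water 3 cm above the soil when plants had two leaves.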

[16] = system: ducksalad (Heteranthera limosa); experiment: Test B flooded paddy test; conditions: Heteranthera limosa, 250 g ai/ha, Flood; 0 to 100 scale where 0 is no effect and 100 is complete control; read-out: Ducksalad plant response rating
Summary of the method: as §2

[17] = system: sedge, umbrella (small-flower umbrella sedge, Cyperus difformis); experiment: Test B flooded paddy test; conditions: Cyperus difformis, 250 g ai/ha, Flood; 0 to 100 scale where 0 is no effect and 100 is complete control; read-out: Sedge, Umbrella plant response rating
Summary of the method: as §2

[18] = system: barnyardgrass (Echinochloa crus-galli); experiment: Test B flooded paddy test; conditions: Echinochloa crus-galli, 250 g ai/ha, Flood; 0 to 100 scale where 0 is no effect and 100 is complete control; read-out: Barnyardgrass plant response rating
Summary of the method: as §2

| SMILES | plant injury at 125 g/ha [1] [%] | plant injury at 31 g/ha [1] [%] | pest or weed control at 125 g/ha [2] [%] | pest or weed control at 31 g/ha [2] [%] | pest or weed control at 125 g/ha [3] [%] | pest or weed control at 31 g/ha [3] [%] | pest or weed control at 125 g/ha (Kochia (Kochia scoparia) [4]) [%] | pest or weed control at 31 g/ha (Kochia (Kochia scoparia) [4]) [%] | pest or weed control at 125 g/ha [5] [%] | pest or weed control at 31 g/ha [5] [%] | pest or weed control at 125 g/ha [6] [%] | pest or weed control at 31 g/ha [6] [%] | plant injury at 125 g/ha (corn (Zea mays)) [%] | Corn plant response rating (crop injury, 0 = no effect, 100 = complete kill) at 31 g/ha (corn (Zea mays)) [%] | pest or weed control at 125 g/ha [7] [%] | pest or weed control at 31 g/ha [7] [%] | pest or weed control at 125 g/ha [8] [%] | pest or weed control at 31 g/ha [8] [%] | pest or weed control at 125 g/ha [9] [%] | pest or weed control at 31 g/ha [9] [%] | other results |
| --- | --- | --- | --- | --- | --- | --- | --- | --- | --- | --- | --- | --- | --- | --- | --- | --- | --- | --- | --- | --- | --- |
| COCOCc1ccccc1NC(=O)[C@H]1C(=O)N(C)C[C@@H]1c1cccc(C(F)(F)F)c1 (racemic) [Compound 1161] | 0 | 0 | 0 | 0 | 0 | 0 | 0 | 0 | 0 | 0 | 0 | 0 | 0 | 0 | 0 | 0 | 0 | 0 | 0 | 0 | pest or weed control at 31 g/ha [10]: 0%; pest or weed control at 125 g/ha [10]: 20%; pest or weed control at 31 g/ha (Kochia (Kochia scoparia) [11]): 0%; pest or weed control at 125 g/ha (Kochia (Kochia scoparia) [11]): 0%; pest or weed control at 31 g/ha [12]: 0%; pest or weed control at 125 g/ha [12]: 0%; pest or weed control at 31 g/ha [13]: 0%; pest or weed control at 125 g/ha [13]: 0%; pest or weed control at 31 g/ha [14]: 0%; pest or weed control at 125 g/ha [14]: 0%; pest or weed control at 31 g/ha [15]: 0%; pest or weed control at 125 g/ha [15]: 0%; pest or weed control at 250 g/ha (rice (Oryra sativa)): 15%; pest or weed control at 250 g/ha [16]: 0%; pest or weed control at 250 g/ha [17]: 0%; pest or weed control at 250 g/ha [18]: 0% |
| CN1C[C@H](c2cccc(C(F)(F)F)c2)[C@@H](C(=O)Nc2ccccc2CCO)C1=O (racemic) [Compound 1162] | 20 | 0 | 50 | 0 | 40 | 30 | 0 | 0 | 0 | 0 | 0 | 0 | 0 | 0 | 0 | 0 | 0 | 0 | 60 | 30 | pest or weed control at 31 g/ha [10]: 50%; pest or weed control at 125 g/ha [10]: 90%; pest or weed control at 31 g/ha (Kochia (Kochia scoparia) [11]): 0%; pest or weed control at 125 g/ha (Kochia (Kochia scoparia) [11]): 0%; pest or weed control at 31 g/ha [12]: 0%; pest or weed control at 125 g/ha [12]: 20%; pest or weed control at 31 g/ha [13]: 0%; pest or weed control at 125 g/ha [13]: 0%; pest or weed control at 31 g/ha [14]: 0%; pest or weed control at 125 g/ha [14]: 0%; pest or weed control at 31 g/ha [15]: 40%; pest or weed control at 125 g/ha [15]: 90%; pest or weed control at 250 g/ha (rice (Oryra sativa)): 15%; pest or weed control at 250 g/ha [16]: 80%; pest or weed control at 250 g/ha [17]: 0%; pest or weed control at 250 g/ha [18]: 35% |

From patent US12077503B2, “Substituted cyclic amides and their use as herbicides” (FMC CORPORATION, priority 2015, dated 2024)
